The nature of the experiment: Conversion of (R)-P88 and (S)-P88 to iloperidone in human liver S9 fraction in the presence of NAD and NADP. It is filed as in vitro ADME. The following applies: 13 concentrations 1 to 100 μM, initial rate conditions. The protocol:
The aim of this study was to evaluate the potential conversion of (R)-P88 and (S)-P88 to iloperidone in human liver S9 fraction in the presence of NAD and NADP. A copy of the final report from this study, entitled, “InVitro Metabolism of (R)-P88 and (S)-P88 in Human Liver S9 Fraction,” (“Final Report”) is attached.
Three concentrations of (R)-P88 and (S)-P88 (1, 10 and 100 μM) were incubated with human liver S9 fractions in the presence of NAD and NADP. Under initial rate conditions, 13 concentrations of (R)-P88 and (S)-P88 (1 to 100 μM) were incubated with human liver S9 fractions to determine the Michaelis-Menten enzyme kinetic constants, Km and Vmax, for the formation of iloperidone.

`COc1cc([C@@H](C)O)ccc1OCCCN1CCC(c2noc3cc(F)ccc23)CC1` [R-P88]: the “Enzyme kinetic behaviour of the conversion to iloperidone (plot shape / best-fit model)” value was “slightly S-shaped direct plot and “hook”-shaped Eadie-Hofstee plot suggesting allosteric interactions”.

Consider `COc1cc([C@H](C)O)ccc1OCCCN1CCC(c2noc3cc(F)ccc23)CC1` [S-P88], for which the “Enzyme kinetic behaviour of the conversion to iloperidone (plot shape / best-fit model)” value is recorded as “best fit a biphasic saturation enzyme model”.

The values are drawn from US10874659B2, “Iloperidone metabolite for use in the treatment of psychiatric disorders” (Vanda Pharmaceuticals, Inc., priority 2012, dated 2020).
